Data reported in patent publication US20260226006A1, “INDOLE COMPOUND, PREPARATION METHOD THEREFOR AND USE THEREOF” (SUZHOU MERNA THERAPEUTICS CO. LTD, priority 2023, published 2026).

Tests used:
[1] = test system: NAP1L2 mRNA in HaCat cells; assay: NAP1L2 mRNA expression in HaCat cells by RT-PCR (Example 16); assay type: cell-based, human; settings: HaCat keratinocytes, 24 hours
Protocol: 1*10^8 HaCat cells were seeded in culture dishes, into which a recombinant protein of m6A methylase METTL3 (Abcam, Cat. #ab271611) and a recombinant protein of m6A demethylase FTO (Abcam, Cat. #ab271525) were added, or METTL3 siRNA (sh-METTL3, GeneChem) and FTO siRNA (sh-FTO, GeneChem) were transfected, respectively. The cells were placed in an incubator containing 5% carbon dioxide for culture at 37° C. for 24 hours, washed with PBS, and then collected by high-speed centrifugation. Total RNA was extracted using a Trizol reagent (Sigma Aldrich). 1 μg of RNA was reverse-transcribed into cDNA using a cDNA reverse transcription kit (Transgene Biotech, Cat. #AT311-03). 1.25 μL of a primer (Beyotime, Cat. #QH18721S), 10 μL of an iTag Universal SYBR Green supermix (Bio-Rad, Cat. #172-5125), and an appropriate amount of DEPC ultrapure water were added to formulate 20 μL of a reaction solution to perform an RT-PCR reaction. Upon completion of the reaction, the reaction solution was subjected to agarose gel electrophoresis to determine the mRNA expression amount of NAP1L2.

[2] = test system: HaCat cells; assay: m6A methylation level of human HaCat keratinocytes, EpiQuik m6A RNA methylation quantification kit (Example 20); assay type: cell-based; settings: 50 nM drug alone; for fold induction at 0.05 µM: Homo sapiens, HaCat cells, 24 hours, read-out: m6A fold change relative to control group 1
Protocol: HaCat cells were cultured in a DMEM culture medium containing 10% fetal bovine serum, 100 U/mL penicillin, and 100 μg/mL streptomycin. Culture dishes were placed in an incubator containing 5% CO2 for culture at 37° C. for 24 hours. An equal volume of DMSO was added in control group 1, 50 nM sorafenib, capecitabine, docetaxel, and osimertinib were respectively added in control groups A, B, C, and D, and 400 nM test compounds or nicotinamide were respectively added in sample groups A1-17, B1-17, C1-17, and D1-17 after the addition of 50 nM corresponding compounds. The cells were continuously cultured for 24 hours, washed with PBS, and then collected by high-speed centrifugation. Total RNA was extracted using a Trizol reagent (Sigma Aldrich), and RNA m6A methylation of a sample was quantitatively detected using an EpiQuik m6A RNA methylation quantification kit. The concentrations of positive control samples for a standard curve were 0.01 ng/μl, 0.02 ng/μl, 0.05 ng/μl, 0.1 ng/μl, 0.2 ng/μl, and 0.5 ng/μl. The absorbance at 450 nm was read using a microplate reader (Tecan GENios). A quantitative calculation formula for m6A is as follows:
m6A (ng)=(absorbance of sample well−absorbance of background well)/slope of standard curve m6A (%)=m6A (ng)/RNA amount of sample (ng)*100%.

[3] = test system: skin of hind limb toes of mice; assay: Chemotherapeutic drug-induced mouse models with hand-foot syndrome (Example 23); assay type: in vivo, ICR mice; settings: for degree of swelling of hind limb toes / epidermal layer and stratum corneum in skin tissues of hind limb toes (pathological staining): modeling drug oral for 14 days; for skin appearance of hind limb toes: modeling for 14 days, capecitabine 200 mg/kg or docetaxel 25 mg/kg oral
Excerpt: After adaptive feeding for 7 days, SPF-grade ICR mice (male, 5-6 weeks old, with a body weight of approximately 35 g) were randomly divided into groups, including a blank control group (6 mice), a capecitabine modeling group (6 mice), a docetaxel modeling group (6 mice), a capecitabine+compound 2b group (6 mice), a docetaxel+compound 2b group (6 mice), a capecitabine+nicotinamide group (6 mice), and a docetaxel+nicotinamide group (6 mice). The groups were respectively administered corresponding modeling drugs by oral gavage (capecitabine at 200 mg/kg and docetaxel at 25 mg/kg) once daily, and the blank control group was administered an equivalent volume of normal saline. After administration with the chemotherapeutic drugs for 2 weeks, the compound ointments (at a compound content of 3%) used in Example 22 were respectively applied topically in the groups, or nicotinamide was orally administered (100 mg/kg) once daily continuously for 16 days.
Measurement of the degree of swelling of toes: The degree of swelling of hind limb toes of the mice was measured using a toe swelling tester (KW-7C, Nanjing Calvin Biotechnology Co., Ltd.) before administration with the modeling drugs, after administration with the modeling drugs for 2 weeks, and before sacrifice, respectively. Before measurement, ankle joints of hind paws of the mice were marked at same positions before administration, after administration for 2 weeks, and before sacrifice. During measurement, water was properly located at the same level as the marked positions, and numerical values were recorded after becoming stable.
Pathological staining of skin tissues: Skin tissue samples were selected from hind limb toes of the mice and placed in 4% paraformaldehyde for fixation at room temperature for 4 hours. Then, the tissues were taken out and rinsed with running water for several hours. The samples were subjected to dehydration treatment with 70%, 80%, and 90% ethanol solutions, followed by treatment with a mixed solution of equal amounts of absolute alcohol and xylene for 15 minutes, and then permeabilized twice with a xylene solution for 15 minutes each time until the samples became transparent. The samples were placed in a mixture of half xylene and half paraffin for soaking for 15 minutes, and then, paraffin I and paraffin II were added for wax penetration for one hour, respectively. After embedding with paraffin, the samples were sectioned, baked, dewaxed, and hydrated. Then, the hydrated sections were placed in a hematoxylin solution (ZSGB-BIO, article No. 23041001) for staining for 3 minutes, and a differentiation solution of hydrochloric acid in ethanol was added for differentiation for 15 seconds. After rinsing with water, a Scott bluing solution (Servicebio, article No. 20230801) was added for bluing for 15 seconds. After rinsing with running water, the sections were stained with an eosin solution (Solarbio, article No. 33535) for 3 minutes, rinsed with running water, dehydrated, permeabilized, sealed, and inspected under a microscope.
Immunohistochemical staining: After baking, dewaxing, and hydration, paraffin sections of skin tissues of hind limb toes of the mice were subjected to antigen retrieval using a 0.2 M citric acid buffer solution (containing 1.534 g of citric acid, 3.1 g of sodium citrate, and 100 mL of distilled water, pH 4.7). Endogenous […] was removed using 3% hydrogen peroxide (Shandong Annjet High-Tech Disinfection Technology Co., Ltd., article No. 20290902), and the sections were incubated at room temperature for 10 minutes and then fully rinsed with a PBS buffer solution (containing 8 g of NaCl, 0.2 g of KCl, 1.44 g of Na2HPO4, and 1 M HCl, pH 7.4). The sections were permeabilized with 0.5% Triron-X-100 (AmyJet Scientific, article No. A-CSH436-100 mL), respectively permeabilized with mouse anti-IL-1β and rabbit IL-8 for 10 minutes, and not permeabilized with rabbit anti-IL-6. […]

[4] = test system: HaCat cells; assay: m6A methylation level of drug-treated HaCat keratinocytes by nanopore sequencing (Example 14); assay type: cell-based, human; settings: 50 nM drug, 24 hours
Protocol: 1*10^8 HaCat cells were seeded in culture dishes, into which 50 nM drugs (including sorafenib, capecitabine, docetaxel, and osimertinib) were added, respectively. The cells were cultured in an incubator containing 5% CO2 at 37° C. for 24 hours and washed with PBS after culture media were removed. Centrifugation was performed, the supernatant was discarded, and then, 400 μL of an RLT cell lysis buffer (QIAGEN, Cat. #79216) was added. A portion of samples were selected, into which 400 μL of 70% ethanol was added. The mixture was evenly stirred and then transferred to an RNeasy mini column, and RNA was extracted using an RNeasy mini kit (QIAGEN, Cat. #74104). 2 μL of an RNA sample was selected and dissolved in 98 μL of a 10 mM Tris-HCl buffer solution, and the absorbance at 260 nm was measured using a Nanodrop (Thermo Fisher Scientific) to determine the RNA concentration.
40 μg of an RNA sample was selected for enrichment of mRNA (PolyA+RNA) using an NEBNext Poly(A) mRNA magnetic isolation module (NEB, Cat. #E7490), and then, a 3′ end of the above enriched mRNA (PolyA+RNA) molecule was ligated with reverse transcription adapter RTA using a direct RNA sequencing kit (Oxford Nanopore Technologies, Cat. #SQK-RNA002). A reverse transcription reaction was performed with the mRNA (PolyA+RNA) molecule as a template to synthesize a complementary strand, a terminal end of the reverse transcription adapter RTA was ligated with a sequencing adapter (RNA adapter) to form a final sequencing library, and quantitative detection was performed using a Qubit™ dsDNA HS assay kit (Invitrogen, Cat. #LOT2133187).
After quality inspection of the library, the prepared sequencing library was loaded onto a PromethION flow cell chip (Oxford Nanopore Technologies, Cat. #FLO-MIN106D), and placed in a PromethION sequencer (Oxford Nanopore Technologies) for sequencing by selecting a matched sequencing mode. Basecalling was performed on sequencing data through guppy, and m6A methylation analysis was performed on original fast5 data.

[5] = test system: MMP2 and MMP9 in HaCat keratinocytes; assay: Expression of matrix metalloproteinases in HaCat keratinocytes, RT-PCR and Western blot (Example 17); assay type: cell-based, human; settings: 24 hours
Protocol: 1*10^8 HaCat cells were seeded in culture dishes, into which a human recombinant NAP1L2 protein (Abcam, Cat. #ab117213), sorafenib, capecitabine, docetaxel, and osimertinib were added, or NAP1L2 siRNA (sh-NAP1L2, GeneChem) was transfected, respectively. The cells were placed in an incubator containing 5% carbon dioxide for culture at 37° C. for 24 hours, washed with PBS, and then collected by high-speed centrifugation. An RLT lysis buffer was added to the above collected cells, the mixture was shaken at 4° C. for half an hour and centrifuged to collect the supernatant, and the expression of matrix metalloproteins was measured by Western blot.
Total RNA was extracted from the above collected cells using a Trizol reagent (Sigma Aldrich). 1 μg of RNA was reverse-transcribed into cDNA using a cDNA reverse transcription kit (Transgene Biotech, Cat. #AT311-03). 1.25 μL of a primer (SinoBiological, Cat. #HP100168&HP100367), 10 μL of an iTagUniversal SYBR Green supermix (Bio-Rad, Cat. #172-5125), and an appropriate amount of DEPC ultrapure water were added to formulate 20 μL of a reaction solution to perform an RT-PCR reaction. Upon completion of the reaction, the reaction solution was subjected to agarose gel electrophoresis to determine the mRNA expression amounts of the matrix metalloproteins.

| Molecule | mRNA expression amount of NAP1L2 [1] | m6A methylation level of human HaCat keratinocytes [2] | fold induction at 0.05 µM [2] | degree of swelling of hind limb toes [3] | epidermal layer and stratum corneum in skin tissues of hind limb toes (pathological staining) [3] | skin appearance of hind limb toes [3] | m6A methylation level of HaCat cells, increase compared with blank control group [4] [times] | other results |
| --- | --- | --- | --- | --- | --- | --- | --- | --- |
| m6A demethylase FTO: recombinant protein of m6A demethylase FTO (Abcam, Cat. #ab271525) | significantly decreased |  |  |  |  |  |  |  |
| m6A methylase METTL3: recombinant protein of m6A methylase METTL3 (Abcam, Cat. #ab271611) | significantly increased |  |  |  |  |  |  |  |
| CC(=O)O[C@@]12CO[C@@H]1C[C@H](O)[C@@]1(C)C(=O)[C@H](O)C3=C(C)[C@@H](OC(=O)[C@H](O)[C@@H](NC(=O)OC(C)(C)C)c4ccccc4)C[C@@](O)([C@@H](OC(=O)c4ccccc4)[C@H]21)C3(C)C [Docetaxel, docetaxel] |  | significantly increase | 5.6 | swelling of the hind limb toes of the mice is caused | significantly thickened | obvious erythema, rhagades, and blisters | 3.97 | cytokine IL-6 in skin tissues of hind limb toes (immunohistochemistry) ([3]; docetaxel oral for 14 days): significantly increased |
| CCCCCOC(=O)Nc1nc(=O)n([C@@H]2O[C@H](C)[C@@H](O)[C@H]2O)cc1F [Capecitabine, capecitabine] |  | significantly increase | 6.7 | swelling of the hind limb toes of the mice is caused | significantly thickened | obvious erythema, rhagades, and blisters | 6.01 | cytokine IL-8 in skin tissues of hind limb toes (immunohistochemistry) ([3]; capecitabine oral for 14 days): significantly increased |
| recombinant NAP1L2 protein: human recombinant NAP1L2 protein (Abcam, Cat. #ab117213) (protein, UniProt Q9ULW6 1-460, looked up) Nucleosome assembly protein …: MAESENRKELSESSQEEAGNQIMVEGLGEHLERGEDAAAGLGDDGKCGEEAAAGLGEEGENGEDTAAGSGEDGKKGGDTDEDSEADRPKGLIGYVLDTDFVESLPVKVKYRVLALKKLQTRAANLESKFLREFHDIERKFAEMYQPLLEKRRQIINAIYEPTEEECEYKSDSEDCDDEEMCHEEMYGNEEGMVHEYVDEDDGYEDYYYDYAVEEEEEEEEEDDIEATGEENKEEEDPKGIPDFWLTVLKNVDTLTPLIKKYDEPILKLLTDIKVKLSDPGEPLSFTLEFHFKPNEYFKNELLTKTYVLKSKLAYYDPHPYRGTAIEYSTGCEIDWNEGKNVTLKTIKKKQKHRIWGTIRTVTEDFPKDSFFNFFSPHGITSNGRDGNDDFLLGHNLRTYIIPRSVLFFSGDALESQQEGVVREVNDAIYDKIIYDNWMAAIEEVKACCKNLEALVEDIDR |  |  |  |  |  |  |  | mRNA and protein expression amounts of matrix metalloproteinases MMP2 and MMP9 [5]: significantly increased |
